For 91 molecules, melting point results are on record in a melting point compilation (Tetko et al.; mined from patent text by program, amines drawn as free bases though some values may be those of a salt).

What is called melting point is the temperature, or range, at which the solid turns liquid.

Each structure is given as a SMILES string.

`CCn1c(Br)cc2c(C)nc3c(Br)cnn3c21` returned a melting point of 135 to 137 °C.

For `O=C(O)c1sc2ccc(Br)cc2c1-c1ccccc1`, the melting point was 265 to 266 °C.

`COc1cc2c(cc1Nc1ncc(Cl)c(Nc3ccc(N4CCOCC4)cc3OC)n1)CCOC(=O)N2C` yielded a melting point of 242 to 245 °C.

In turn, `COC(=O)c1cccc(OCc2ccccc2)c1` registered a melting point of 74 to 77 °C.

As for `CC(=O)OC1CSC(Oc2ccc(-c3cnoc3C)nc2)C(OC(C)=O)C1OC(C)=O` (stereo unspecified), the melting point was 165 °C.

`CCCCCCCC(=O)NCc1ccccc1`: the melting point fell in the range of 76 to 78 °C.

Molecule `CCCCCCCCCCCC1=NCCN1CCO` gave a melting point of 40 to 42 °C.

Regarding `Cc1nc2sc3cc(F)ccc3n2c1CO`, the melting point fell in the range of 230 to 235 °C.

For the molecule `Cc1ccc(OCCOc2ccc(C(=O)C(=O)O)cc2)cc1`, the melting point is 135 to 136 °C.

Regarding `CSCC(O)COc1cccc2oc(C(=O)O)cc(=O)c12` (stereo unspecified), the melting point was in the range of 76 to 79 °C.

In turn, `Cc1ccc(SCC(=O)c2cc(O)c(O)c([N+](=O)[O-])c2)cc1` had a melting point of 115 to 116 °C.

As for `O=C1C=C(NC(=O)C(=O)c2cn(Cc3cccc(Br)c3)c3ccccc23)CO1`, the melting point is 278 to 280 °C.

As to `Fc1ccc(CNc2nc(OCC(F)(F)F)nc(Oc3cccc(C(F)(F)F)c3)n2)cc1`, the melting point was in the range of 107 to 109 °C.

As to `O=C(N[C@H]1CC[C@H](CCN2CCN(c3nccc4c3CCO4)CC2)CC1)c1ccc(-c2ccccc2)cc1`, the melting point was determined as 232 °C.

Turning to `CCN1C(=O)C(C)(C)C(=O)N(C)c2cc(CN(CCn3cc(C)c4oc(C)cc4c3=O)C(C)c3cccnc3C)ccc21` (stereo unspecified), the melting point was 169 to 170 °C.

`ClCCOc1ccc(Cl)c2[nH]ccc12` displayed a melting point of 68 to 72 °C.

Consider `Cc1cc2cc(C#N)c(Cl)nc2s1`, for which the melting point was in the range of 171 to 173 °C.

`COC(=O)C#CC(=O)c1cc(OC)ccc1OC` came in with a melting point of 70 to 71 °C.

As for `COc1c(NC(=O)c2cc3cccc(Oc4ccnc(NCCN5CCOCC5)n4)c3n2C)cc(C(C)(C)C)cc1NS(C)(=O)=O`, the melting point is 201 to 202 °C.

For the molecule `O=C(Nc1cccnc1)N1CCN(c2nccc(-c3ccc(F)c(F)c3)n2)CC1`, the melting point is 231 to 232 °C.

The molecule `COCOc1cc2c(c3ccccc13)Nc1ccccc1S2` gave a melting point of 103 °C.

Turning to `CCCc1nn(CC)c(C(N)=O)c1N`, the melting point was in the range of 81 to 83 °C.

With `C=CS(=O)(=O)c1ccc(C(=O)O)cc1`, the melting point came to 228 °C.

For the molecule `COc1ccc(C=CC(=O)c2c(OC)cc(OC)cc2OC2OC(CO)C(O)C(O)C2NC(C)=O)cc1` (stereo unspecified), the melting point lay within 197 to 200 °C.

The molecule `CCOc1ccccc1OC(c1ccccc1)C(O)CO` (stereo unspecified) returned a melting point of 68 to 70 °C.

In turn, `O=C(COc1ccccc1)N[C@@H](Cc1ccc(OCCc2coc(-c3ccccc3)n2)cc1)C(=O)O` yielded a melting point of 94 to 97 °C.

Regarding `CCCCCCCCCCCCCCCCNC(=O)c1ccc(-n2oc(C(C)(C)C)c(COc3ccc(N)cc3)c2=O)c([N+](=O)[O-])c1`, the melting point was found to be 220 °C.

The molecule `COC(=O)Nc1cccc(C(=O)OC)c1NCc1ccc(-c2ccccc2C#N)cc1` showed a melting point of 113 to 115 °C.

`COc1ccc(C2CC(OC(C)=O)CCC2[N+](=O)[O-])cc1OC` (stereo unspecified) showed a melting point of 108 to 110 °C.

In turn, `COCOc1ccc2c(N)noc2c1` yielded a melting point of 88 to 89 °C.

Consider `O=C1Nc2cccnc2N(C(=O)CN2CCN(CCN3CCOCC3)CC2)c2ccccc21`, for which the melting point was 227 to 229 °C.

Molecule `NC(=O)N1CCCN(NC(=O)c2cc(=O)c(O)c[nH]2)C1=O` displayed a melting point of 215 to 220 °C.

Take `CS(=O)(=O)NC1CCC(NC(=O)c2ccc(F)cc2)CC1` (stereo unspecified): the melting point lay within 269 to 270 °C.

In turn, `COC(=O)C1=Cc2cc(Br)ccc2SCC1` showed a melting point of 94 to 95 °C.

The molecule `O=C(C=Cc1ccc(CNC2CC2)cc1)Nc1ccc(-c2ccc(Cl)cc2)cc1` yielded a melting point of 222 to 223 °C.

In turn, `[N-]=[N+]=Nc1cc(C2COCOC2)c2occc2c1` registered a melting point of 102 to 104 °C.

For the molecule `CC(C)Oc1cccc(CC(=O)N2CCC(CCN3CCC(C(=O)c4nc5ccccc5n4Cc4ccc(F)cc4)CC3)(c3ccc4c(c3)OCO4)C2)c1` (stereo unspecified), the melting point fell in the range of 73 to 76 °C.

The molecule `CC(=O)OC1(C(=O)COC(=O)CC(C)C)CCC2C3CC(C)C4=CC(=O)C=CC4(C)C3C(O)CC21C` (stereo unspecified) registered a melting point of 126 to 130 °C.

`Nc1cccc(-c2ccc(CCN3CCN(c4nnnn4-c4ccc(F)cc4)CC3)cc2)n1`: the melting point lay within 185 to 187 °C.

As to `CCS(=O)c1nnc2n1C=Cc1ccccc1C2` (stereo unspecified), the melting point is 98 to 99 °C.

In turn, `CCCCCN1C(=O)CN=C(c2ccccc2)c2ccccc21` yielded a melting point of 93 to 95 °C.

`Cc1cccc2cc3c(=O)n(CCc4c[nH]c5ccccc45)cc(C(=O)NCCN(C)C)c3nc12`: the melting point fell in the range of 105 to 107 °C.

In the case of `COc1c(N2CCC(n3nncc3C)C2)c(F)cc2c(=O)c(C(=O)O)cn(C3CC3)c12` (stereo unspecified), the melting point is 226 to 228 °C.

Regarding `CC(C)N(C=Nc1ncc(I)c(Cl)n1)C(C)C`, the melting point was 97 to 100 °C.

The molecule `Fc1ccc(-c2[nH]nc(Br)c2-c2ccncc2)cc1F` came in with a melting point of 285 to 290 °C.

`CC(=O)N1CC(=O)N(CCc2ccccc2)C(=O)C1`: the melting point was 130 °C.

As for `CCCNC(=S)NS(=O)(=O)c1cc2c(cc1OC)OCC(NC(=O)c1cc(Cl)ccc1OC)C2` (stereo unspecified), the melting point was 182 °C.

Molecule `O=C1C(=O)N(c2ccc(Cl)cc2[N+](=O)[O-])C(=O)N1c1cccc(Cl)c1` returned a melting point of 133 °C.

Consider `Nc1cccc2cccc(S)c12`, for which the melting point was 69 to 72 °C.

On to `CN(C)C=NCc1ccc2c(c1)Nc1nccnc1S2`, for which the melting point was in the range of 218 to 219 °C.

Consider `Nc1ccccc1C(=O)C1CC1`, for which the melting point fell in the range of 46 to 48 °C.

Regarding `O=C(O)CC(O)c1cccc(Cl)c1` (stereo unspecified), the melting point lay in the range of 94.5 to 95.5 °C.

`COc1ccc2c(c1)sc1nc(CO)cn12` had a melting point of 202 to 205 °C.

For the molecule `Clc1cccc(Nc2ncnc3[nH]nc(NCc4ccc(-c5cncs5)cc4)c23)c1`, the melting point amounted to 235 °C.

`Cc1cccc(-c2[nH]c(C(C)C)nc2-c2cccc(-n3ccnc3)c2)n1` had a melting point of 158 to 161 °C.

The molecule `COC(=O)C(C(=O)Cc1ccccc1)C1c2ccccc2C(=O)N1c1ccc2ccc(Cl)nc2n1` (stereo unspecified) gave a melting point of 185 °C.

`C=CCc1ccc(OCCC(C)C)c2c(=O)cc(C(=O)O)oc12` gave a melting point of 79 to 80 °C.

The molecule `C(=C1CCCc2cccnc21)c1ccccc1` displayed a melting point of 58 to 59 °C.

For `Cc1oc(-c2ccccc2)nc1CCc1ccc(C=CC=O)cc1`, the melting point was in the range of 99 to 100 °C.

In the case of `COC(=O)c1ccccc1C=CC(=O)C=Cc1ccccc1C(=O)OC`, the melting point lay in the range of 221 to 223 °C.

Take `CCN(CC)CC(=O)OC1CC2(C)C(C(C)=O)CCC2C2CCC3CC(O)C(Cl)CC3(C)C12` (stereo unspecified): the melting point lay in the range of 182 to 187 °C.

Consider `O=C(O)Cc1cccc(OCc2ccccc2Cl)c1OCc1ccccc1Cl`, for which the melting point is 102 to 104 °C.

Regarding `COc1ccc(O)c(C2C(=O)Nc3cccc(Br)c32)n1` (stereo unspecified), the melting point was 149 to 152 °C.

As to `COc1cc(C(=O)N2CC2C#N)cc(OC)c1OC` (stereo unspecified), the melting point lay in the range of 86 to 89 °C.

As for `O=C(O)CCc1oc(/C=C/c2ccccc2)nc1-c1ccccc1`, the melting point lay within 138 to 139 °C.

For the molecule `COC(=O)c1nc(Cl)c(Cl)c(Cl)c1I`, the melting point was in the range of 61 to 62 °C.

For the molecule `CC(=O)NCc1ccc2ccn(C3CCN(CCCCc4ccc(F)cc4)CC3)c2c1`, the melting point lay within 59 to 60 °C.

Regarding `CC(C)c1nccc2c(CC(=O)O)cccc12`, the melting point is 181 to 182 °C.

Molecule `OC(CCCCCCCCCOCc1ccccc1)c1ccc(OCc2ccccc2)c(OCc2ccccc2)c1` (stereo unspecified) had a melting point of 45 to 47 °C.

Consider `O=C(O)C1Nc2ccccc2-c2c([N+](=O)[O-])cnn21` (stereo unspecified), for which the melting point is 203 to 205 °C.

On to `c1ccc(Cc2nc3cnc4ccccc4c3s2)cc1`, for which the melting point was 111 to 113 °C.

The molecule `CCOC(=O)C(O)=CC=C(C#N)c1ccccc1` came in with a melting point of 189 °C.

Molecule `CCNC(=O)c1cccc(F)c1N` returned a melting point of 60 °C.

Consider `Cn1cc(-c2cc(OC3CCCC3)c(Cl)cc2F)c(=O)cc1C(F)(F)F`, for which the melting point is 152 to 154 °C.

In turn, `NCc1ccc(F)cc1C(F)(F)C(F)(F)c1ccccc1` had a melting point of 52.5 to 54 °C.

`O=C(Nc1ccc(O)c(C(=O)O)c1)OCc1ccccc1`: the melting point fell in the range of 184 to 186 °C.

For the molecule `Cc1nc(-c2ccc(F)cc2)c(CO)c(C(C)C)c1C#N`, the melting point turned out to be 150 °C.

For the molecule `CC(=O)Nc1ccc([N+](=O)[O-])cc1OCC(O)CN1C(=O)CCC1=O` (stereo unspecified), the melting point is 157 °C.

`COC(CNc1nc(C)nc2cccc(C)c12)OC`: the melting point is 48 to 49 °C.

Molecule `N#Cc1cnc2c(oc3ccccc32)c1Cl` had a melting point of 229 to 231 °C.

For `Cc1cccc(-c2sc(N)nc2-c2ccnc(-c3ccc(OCCN4CCCC4)cc3)c2)n1`, the melting point is 150 °C.

For the molecule `CNC(=S)C1(c2cccnc2)CCCCC1=CCOc1ccc([N+](=O)[O-])cc1` (stereo unspecified), the melting point lay within 201 to 202 °C.

`O=[N+]([O-])c1ccc(-c2ccc([N+](=O)[O-])c(Cl)c2)cc1Cl` came in with a melting point of 221 to 222 °C.

The molecule `CSc1cc(S(F)(F)(F)(F)F)ccc1C#N` yielded a melting point of 101 to 102 °C.

In the case of `CC(=O)Nc1ccc(/C=C/C(=O)NCC(=O)N(C)c2ccc(Cl)c(CO)c2Cl)cn1`, the melting point is 207 to 209 °C.

Take `COc1ccc(-n2cc(C)cc2-c2ccc(S(N)(=O)=O)cc2)cc1`: the melting point lay within 63 to 64 °C.

In the case of `CC1(C)OCC(CCBr)CO1`, the melting point stood at 18 °C.

On to `COC(=O)C(CCN(C(C)C)C(C)C)(CC(=O)N1CCCCC1)c1ccccc1Cl` (stereo unspecified), for which the melting point was 104 to 106 °C.

Molecule `O=[N+]([O-])c1cc(Cl)cc(C(c2cc(Cl)cc([N+](=O)[O-])c2O)C(F)(F)F)c1O` displayed a melting point of 135 °C.

As to `CC(=O)NC(=O)CSC(=O)c1ccco1`, the melting point lay within 103 to 105 °C.

Take `NCC1Cc2cccc(-c3ccsc3)c2O1` (stereo unspecified): the melting point is more than 200 °C.
